# Test results from the supplement of paper PMC10307832.
# What was measured:
# Test in all cases: relative viability (nuclei count vs DMSO), 5 days (fraction); higher = more cells survive
# [1] = compound: CC(C)N(CCCNC(=O)Nc1ccc(C(C)(C)C)cc1)C[C@H]1O[C@@H](n2ccc3c(N)ncnc32)[C@H](O)[C@@H]1O + Cc1cc(Nc2cc(N3CCN(C)CC3)nc(Sc3ccc(NC(=O)C4CC4)cc3)n2)n[nH]1 [Tozasertib] (partner 0.1 µM)
# Outline: (§1)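 For relative viability, nuclei counts in treated wells were divided by those in vehicle wells. Lung cancer cell lines had been pin-tool dosed in 1536-well plates the day after seeding and cultured for 5 days, then fixed and stained in one step (final 0.05% Triton X-100, 1% formaldehyde, 1 ug/ml Hoechst) and imaged at 4×. Doses were one drug alone or a fixed anchor-drug dose plus five library-drug doses (not always all listed) in √10 steps, and values are duplicate-plate medians.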
# [2] = compound: CC(C)N(CCCNC(=O)Nc1ccc(C(C)(C)C)cc1)C[C@H]1O[C@@H](n2ccc3c(N)ncnc32)[C@H](O)[C@@H]1O + Nc1nc2[nH]cc(CCc3ccc(C(=O)N[C@@H](CCC(=O)O)C(=O)O)cc3)c2c(=O)[nH]1 [Pemetrexed] (partner 0.2 µM)
# Outline: as §1
# [3] = compound: CC(C)=CC[C@@H](O)C1=CC(=O)c2c(O)ccc(O)c2C1=O [Shikonin] + CC1(C)CCC(c2ccc(Cl)cc2)=C(CN2CCN(c3ccc(C(=O)NS(=O)(=O)c4ccc(N[C@H](CCN5CCOCC5)CSc5ccccc5)c(S(=O)(=O)C(F)(F)F)c4)cc3)CC2)C1 [Navitoclax] (partner 0.5 µM)
# Outline: as §1
# [4] = compound: CC(C)=CC[C@@H](O)C1=CC(=O)c2c(O)ccc(O)c2C1=O [Shikonin] + Cc1nc(Nc2ncc(C(=O)Nc3c(C)cccc3Cl)s2)cc(N2CCN(CCO)CC2)n1 [Dasatinib] (partner 0.075 µM)
# Outline: as §1
Cell Line,relative viability ([1]; first compound 0.08 µM),relative viability ([1]; first compound 0.253 µM),relative viability ([1]; first compound 0.8 µM),relative viability ([1]; first compound 2.53 µM),relative viability ([1]; first compound 8 µM),relative viability ([2]; first compound 0.08 µM),relative viability ([2]; first compound 0.253 µM),relative viability ([2]; first compound 2.53 µM),relative viability ([2]; first compound 8 µM),relative viability ([3]; first compound 0.01 µM),relative viability ([3]; first compound 0.1 µM),relative viability ([3]; first compound 0.3162 µM),relative viability ([3]; first compound 1 µM),relative viability ([4]; first compound 0.01 µM),relative viability ([4]; first compound 0.1 µM),relative viability ([4]; first compound 0.3162 µM),relative viability ([4]; first compound 1 µM),relative viability ([2]; first compound 0.8 µM)
201T,0.871,0.896,0.974,0.898,0.902,0.334,0.368,0.304,0.351,1.2,1.26,1.18,1.19,0.561,0.661,0.579,0.615,
A549,,,,,,,,,,1.46,1.49,1.35,1.17,,,,,
A-427,0.2,0.208,0.193,0.204,0.206,1.05,0.998,0.929,0.99,0.931,1.14,0.99,0.983,0.877,0.801,0.721,0.658,0.937
ABC-1,0.183,0.174,,0.183,0.178,,,,,,,,,0.603,0.685,0.552,0.301,
BEN,0.49,0.642,0.485,0.532,0.452,0.705,0.646,0.694,0.72,0.0555,0.0688,0.0568,0.096,0.302,0.407,0.303,0.386,0.762
CAL-12T,0.326,0.315,0.309,0.293,0.29,1.21,1.16,0.983,1.05,1.29,1.3,1.32,1.22,0.557,0.333,0.356,0.302,1.1
COR-L23,0.208,0.195,0.256,0.23,0.201,0.188,0.203,0.2,0.21,1.13,1.26,1.05,0.908,0.482,0.49,0.532,0.462,0.202
COR-L 105,0.357,0.357,0.331,0.336,0.316,1.09,1.01,1.11,0.956,0.9,0.786,0.747,0.768,0.329,0.329,0.307,0.335,1.18
Calu-6,,,,,,,,,,1.1,1.11,0.981,0.448,,,,,
ChaGo-K-1,0.242,0.245,0.222,0.209,0.23,0.261,0.256,0.258,0.268,0.882,1.4,1.01,1.44,0.501,0.616,0.56,0.67,0.259
EBC-1,,,,,,,,,,0.366,0.392,0.352,0.254,,,,,
EKVX,0.449,0.347,0.373,0.434,0.388,0.44,0.325,0.464,0.404,0.828,0.897,1.21,0.903,0.554,0.442,0.5,0.618,0.413
EMC-BAC-2,0.287,0.314,0.285,0.275,0.275,0.439,0.465,0.431,0.488,1.13,1.1,1.28,1.22,0.301,0.322,0.375,0.298,0.432
EPLC-272H,0.315,0.215,0.287,0.217,0.244,0.404,0.303,0.341,0.396,1.17,1.07,1.27,1.14,0.34,0.322,0.315,0.398,0.298
H3255,0.735,0.473,0.466,0.457,0.609,0.569,0.538,0.562,0.548,0.454,0.695,0.519,0.584,0.285,0.331,0.325,0.348,0.61
HARA,0.097,0.13,0.109,0.0913,0.0981,0.229,0.293,0.233,0.231,1.14,1.13,1.15,1.13,0.239,0.281,0.299,0.28,0.236
HCC-15,0.354,0.542,0.369,0.401,0.337,0.221,0.225,0.213,0.219,0.742,0.655,0.784,0.747,0.637,0.799,0.66,0.65,0.229
HCC-44,0.99,1.11,0.869,1.01,1.04,0.662,0.654,0.688,0.586,1.04,0.909,1.1,1.07,,,,,0.539
HCC-78,0.371,0.383,0.351,0.366,0.484,0.869,0.848,0.844,0.846,0.718,0.964,0.942,0.841,0.39,0.464,0.363,0.417,0.928
HCC-366,0.0971,0.163,0.157,0.0768,0.103,0.14,0.266,0.18,0.166,1.08,1.06,1.09,1.08,0.629,1.12,0.673,0.706,0.129
HCC-827,0.423,0.425,,0.436,0.412,0.257,0.284,0.267,0.269,1.02,1.08,0.99,0.998,0.266,0.357,0.316,0.344,0.279
HOP-62,0.369,0.375,0.335,0.309,0.367,0.323,0.433,0.31,0.356,1.05,1.15,1.01,1.04,0.66,0.593,0.701,0.747,0.39

Cell Line,relative viability ([1]; first compound 0.08 µM),relative viability ([1]; first compound 0.253 µM),relative viability ([1]; first compound 0.8 µM),relative viability ([1]; first compound 2.53 µM),relative viability ([1]; first compound 8 µM),relative viability ([2]; first compound 0.08 µM),relative viability ([2]; first compound 0.253 µM),relative viability ([2]; first compound 2.53 µM),relative viability ([2]; first compound 8 µM),relative viability ([3]; first compound 0.01 µM),relative viability ([3]; first compound 0.1 µM),relative viability ([3]; first compound 0.3162 µM),relative viability ([3]; first compound 1 µM),relative viability ([4]; first compound 0.01 µM),relative viability ([4]; first compound 0.1 µM),relative viability ([4]; first compound 0.3162 µM),relative viability ([4]; first compound 1 µM),relative viability ([2]; first compound 0.8 µM)
IA-LM,,,,,,,,,,0.879,0.858,0.796,0.654,,,,,
LC-2-ad,0.475,0.432,0.442,0.485,0.41,0.282,0.271,0.282,0.276,0.493,0.413,0.552,0.465,0.528,0.586,0.418,0.893,0.263
LCLC-97TM1,0.21,0.17,0.258,0.248,0.21,0.179,0.175,0.163,0.183,0.46,0.4,0.495,0.277,0.877,0.848,1.09,0.815,0.18
LCLC-103H,0.603,0.519,0.432,0.516,0.478,0.417,0.454,0.413,0.51,,,,,0.499,0.462,0.549,0.586,0.452
LK-2,0.159,0.178,0.204,0.195,0.17,,0.252,0.293,0.279,0.913,0.866,1.03,0.852,0.273,0.258,0.228,0.267,0.336
LOU-NH91,0.635,0.662,0.314,0.682,0.607,0.359,0.373,0.439,0.427,0.662,0.646,0.736,0.664,0.551,0.551,0.639,0.584,
LU99A,0.279,0.316,0.276,0.237,0.261,0.178,0.206,0.204,0.167,0.924,0.88,0.833,0.766,0.52,0.756,0.594,0.663,0.176
LXF-289,0.167,0.199,0.131,0.176,0.174,0.876,1,1.02,0.833,1.01,0.873,0.96,0.967,0.213,0.214,0.231,0.229,0.96
NCI-H23,0.41,0.378,0.281,0.355,0.546,0.732,,0.709,0.627,0.821,0.748,0.935,0.781,0.643,0.883,0.78,0.944,0.693
NCI-H358,0.112,0.117,0.119,0.0915,0.112,0.183,0.159,0.168,0.166,,,,,0.145,0.189,0.148,0.157,0.162
NCI-H522,0.538,0.553,0.542,0.588,0.615,0.991,0.944,1.01,1.04,,,,,0.901,0.852,1.04,1.16,0.904
NCI-H650,0.689,0.768,0.691,0.731,0.696,0.882,0.884,0.742,1.01,,,,,0.462,0.449,0.414,0.464,0.908
NCI-H661,0.365,0.345,0.362,0.35,0.37,0.91,0.892,0.977,0.912,,,,,0.866,0.856,0.816,0.983,0.894
NCI-H727,0.667,0.656,0.697,0.621,0.642,,,,,0.405,0.502,0.366,0.295,0.391,0.397,0.344,0.241,
NCI-H1299,,,,,,,,,,1.03,1.09,1.06,1.05,,,,,
NCI-H1563,,,,,,0.774,0.585,0.774,0.782,,,,,0.379,0.435,0.467,0.458,0.795
NCI-H1623,0.426,0.452,0.414,0.408,0.45,,,,,,,,,0.475,0.541,0.569,0.635,
NCI-H1648,0.445,0.425,0.534,0.387,0.495,0.741,0.81,0.6,0.942,,,,,,,,,0.472
NCI-H1703,,,,,,,,,,1.12,1.08,0.991,0.19,,,,,
NCI-H1792,,,,,,0.769,,0.882,0.747,0.607,0.639,0.58,0.778,0.91,0.6,0.934,1.01,0.697
NCI-H2342,0.57,0.559,0.415,0.472,0.56,0.807,0.722,0.718,0.801,,,,,0.334,0.314,0.295,0.325,0.729
SW 900,0.683,0.696,,0.543,0.438,0.472,0.469,0.475,0.441,,,,,0.5,0.592,0.545,0.634,
